{
  "source": "patent US20250281479A1",
  "about": "“TREATMENT OF CAVERNOUS ANGIOMAS WITH A 4-SUBSTITUTED PIPERIDINE DERIVATIVE” (Neurelis, Inc., priority 2024, published 2025)",
  "key": {"[1]": {"test": "nonclinical exposure to NRL-2017 versus NRL-1049 in rats", "format": "in vivo", "procedure": "(§1) Exposure to NRL-2017 was similar or greater (up to 5-fold) than that to NRL-1049 in rats when dosed once a day (QD). In monkeys, exposure to NRL-2017 was also greater (up to 33-fold) than that to NRL-1049. When rats were dosed twice a day (BID) for 14 days, there was a decrease in formation of NRL-2017 with exposure to NRL-2017 lower than that of NRL-1049 (ratio as low as 0.06). […] NRL-1049 bound to human serum albumin and human alpha1-acid glycoprotein. […] There was also inhibition of P-glycoprotein (P-gp) (only CACO-2 cells), organic anion transporting polypeptides (OATP) OATP1B1, OATP1B3 and OAT3 (IC50, >100 μM), but no effect on P-gp (MDCK2 cells), breast cancer resistance protein (BCRP), bile salt export pump (BSEP), or MATE2-K. NRL-1049 is a substrate for P-gp, not BCRP. […] This conclusion will be revisited when human pharmacokinetic (PK) data becomes available."}, "[2]": {"test": "first-in-human single ascending dose and food-effect study, plasma pharmacokinetics", "format": "in vivo", "conditions": "for Tmax: po; for Thalf: mean", "source_text": "This was a first-in-human, single center, randomized, double-blind, placebo-controlled, single ascending dose (SAD) study, including a food-effect assessment, in healthy male and female subjects. Up to 44 subjects were included in the study.\nThe study consisted of 4 sequential cohorts of 8 subjects each (6 active and 2 placebo), randomly assigned to receive a single oral dose of NRL-1049 or matching-placebo under fasting state on Day 1 (See Table 2). In each cohort, a sentinel group of 2 subjects (1 active and 1 placebo) were dosed at least 24 hours prior to enrolling the remaining subjects of the cohort, contingent on the safety profile observed during sentinel dosing, as defined by medical judgment.\nSubjects were admitted to the clinical research unit (CRU) on Day −1. On Day 1, following an overnight fast, subjects received a single oral dose of their assigned study treatment. Safety, PK, and exploratory biomarker assessments were performed prior to dosing and at assigned time points during study confinement. Subjects were permitted to leave the CRU following the completion of the 48-hour PK postdose sampling and safety assessments. A safety follow-up phone call was performed on Day 8 (±1 day).\nFurthermore, a food-effect assessment was integrated into Cohort 3, in which a single oral 150 mg dose of NRL-1049 or placebo was administered to 12 subjects (10 active and 2 placebo) under fed state in Period 2 (refer to schedule of food-effect Cohort 3 in Table 3). After completion of Period 1 and a washout period of at least 14 days, Cohort 3 subjects repeated the screening procedures to ensure they still met the inclusion and exclusion criteria prior to readmission to the CRU for Period 2. Subjects dosed in Period 1 and who returned for Period 2 (a maximum of 6 active and 2 placebo) were administered the same single oral dose in Period 2 under fed state. In addition, at least 4 new subjects were enrolled in Period 2 only, in order to dose a total of 12 subjects (10 active and 2 placebo), in a 1:1 ratio of male to female. If a subject dosed in Period 1 was unable to return for Period 2, a new subject was enrolled to ensure dosing a total of 12 subjects in Period 2. Newly enrolled subjects only received the study drug in the fed state, and as such were not required to undergo Period 1 activities. There was no sentinel approach in Period 2.\nStudy drugs (NRL-1049 or placebo) were administered in the morning. The date and time of each dose was recorded. For each subject, all scheduled postdose activities and assessments were performed relative to the time of study drug administration. An oral dose of the assigned formulation was administered to subjects with approximately 240 mL of water at ambient temperature. The capsule(s) were swallowed whole and not chewed or broken. Food and fluid intake other than water were controlled for each confinement period and all subjects. In Cohorts 1, 2, 3 (Period 1), and 4, water was permitted as needed except from 1 hour predose until 1 hour after dosing. In Period 2 of Cohort 3, water was permitted as needed throughout the confinement period. For cohorts under fasting state, subjects were required to fast (abstain from food) for at least 10 hours prior to dosing and for at least 4 hours following dosing. In Period 2 of the food-effect cohort only, following an overnight fast of at least 10 hours, subjects received a standardized high-fat, high-calorie meal 30 minutes prior to study drug administration. An example meal would consist of 2 eggs fried in butter, 2 strips of bacon, 2 slices of toast with butter, 4 ounces of hash brown potatoes, and 8 ounces of whole milk. […] Subjects had to eat the total content of this meal in 30 minutes or less. For all cohorts, a standardized lunch was served at least 4 hours after dosing. A supper, light snack, and other meals were served at appropriate times thereafter, but not until after 9 hours postdose. […]"}, "[3]": {"test": "nonclinical exposure to NRL-2017 versus NRL-1049 in monkeys", "format": "in vivo", "procedure": "as §1"}, "[4]": {"test": "nonclinical pharmacokinetics after a single oral dose", "format": "in vivo, mice, rats, and monkeys", "procedure": "as §1"}, "ROCK 2": {"target": "ROCK 2 (Homo sapiens, UniProt O75116)", "sequence (O75116 whole entry, species assumed)": "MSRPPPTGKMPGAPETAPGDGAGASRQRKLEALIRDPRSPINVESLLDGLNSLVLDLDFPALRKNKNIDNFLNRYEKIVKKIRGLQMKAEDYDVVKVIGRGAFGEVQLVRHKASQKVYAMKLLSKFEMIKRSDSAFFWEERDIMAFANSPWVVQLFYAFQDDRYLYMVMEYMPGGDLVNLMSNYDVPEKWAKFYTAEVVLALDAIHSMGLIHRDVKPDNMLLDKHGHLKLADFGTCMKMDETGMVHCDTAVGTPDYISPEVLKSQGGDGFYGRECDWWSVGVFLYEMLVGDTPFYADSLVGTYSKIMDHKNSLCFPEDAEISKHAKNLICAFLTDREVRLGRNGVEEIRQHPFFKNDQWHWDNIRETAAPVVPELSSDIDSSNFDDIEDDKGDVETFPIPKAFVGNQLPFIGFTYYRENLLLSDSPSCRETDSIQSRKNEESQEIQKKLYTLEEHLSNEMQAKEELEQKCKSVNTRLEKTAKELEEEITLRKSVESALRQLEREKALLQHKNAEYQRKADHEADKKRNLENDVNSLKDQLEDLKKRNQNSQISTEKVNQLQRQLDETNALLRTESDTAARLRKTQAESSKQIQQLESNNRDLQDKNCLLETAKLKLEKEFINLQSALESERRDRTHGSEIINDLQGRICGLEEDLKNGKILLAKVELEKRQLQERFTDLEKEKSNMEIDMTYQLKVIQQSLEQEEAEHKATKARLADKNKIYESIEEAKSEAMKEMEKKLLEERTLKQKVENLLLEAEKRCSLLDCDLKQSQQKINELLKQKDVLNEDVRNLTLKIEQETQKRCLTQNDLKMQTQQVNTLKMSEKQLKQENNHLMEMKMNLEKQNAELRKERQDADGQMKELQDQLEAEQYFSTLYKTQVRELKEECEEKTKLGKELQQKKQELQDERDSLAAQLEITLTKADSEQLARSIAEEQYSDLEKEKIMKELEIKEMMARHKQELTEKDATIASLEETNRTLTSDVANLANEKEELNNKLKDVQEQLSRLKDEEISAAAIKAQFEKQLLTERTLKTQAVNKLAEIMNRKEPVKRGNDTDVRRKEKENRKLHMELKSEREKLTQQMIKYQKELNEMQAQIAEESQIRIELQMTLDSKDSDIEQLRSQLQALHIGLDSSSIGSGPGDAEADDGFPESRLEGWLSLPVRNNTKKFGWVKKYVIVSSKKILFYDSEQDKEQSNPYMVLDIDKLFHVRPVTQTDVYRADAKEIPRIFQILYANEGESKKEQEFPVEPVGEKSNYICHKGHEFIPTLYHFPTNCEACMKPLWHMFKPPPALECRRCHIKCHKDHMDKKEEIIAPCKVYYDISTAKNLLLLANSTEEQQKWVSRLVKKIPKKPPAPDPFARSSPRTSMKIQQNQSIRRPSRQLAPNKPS", "test": "ROCK 2 inhibition by metabolites", "format": "biochemical"}, "[5]": {"test": "tissue distribution and excretion", "format": "in vivo", "procedure": "as §1"}, "[6]": {"conditions": "150 mg NRL-1049, fed compared to fasting state"}, "[7]": {"conditions": "25 to 250 mg NRL-1049, fasting conditions"}},
  "data": [
    {"smiles": "C[C@@H](N)C1CCN(S(=O)(=O)c2cccc3c(O)nccc23)CC1", "note": "[NRL-2017, 1-hydroxy NRL-1049]", "values": [
      {"measurement": "exposure to NRL-2017 relative to NRL-1049", "setting": "[1]; rats dosed once a day (QD), similar or greater", "result": "up to 5 fold"},
      {"measurement": "exposure ratio NRL-2017 to NRL-1049", "setting": "[1]; rats dosed twice a day (BID) for 14 days", "result": "≥ 0.06"},
      {"measurement": "food effect on mean AUC0-T and AUCinf", "setting": "[2]; [6]", "result": "remained consistent"},
      {"measurement": "food effect on mean Cmax", "setting": "[2]; [6]", "result": "decreased"},
      {"measurement": "food effect on mean elimination half-life", "setting": "[2]; [6]", "result": "remained consistent"},
      {"measurement": "manner of increase of AUC0-T with dose", "setting": "[2]; [7]", "result": "greater than dose proportional"},
      {"measurement": "manner of increase of AUC0-Tmax with dose", "setting": "[2]; [7]", "result": "dose proportional"},
      {"measurement": "manner of increase of AUCinf with dose", "setting": "[2]; [7]", "result": "greater than dose proportional"},
      {"measurement": "manner of increase of Cmax with dose", "setting": "[2]; [7]", "result": "greater than dose proportional"},
      {"measurement": "time up to which mean concentrations were quantifiable", "setting": "[2]; all dose levels of 25 to 250 mg NRL-1049 fasting and 150 mg fed", "result": "up to 48 hours"},
      {"measurement": "AUC(0-t)", "setting": "[2]; both sexes, human, plasma, oral, range over dose range 25 to 250 mg NRL-1049, fasting state, read-out: mean AUC0-T", "result": "478 to 6690", "unit": "ng·h/mL"},
      {"measurement": "AUC", "setting": "[2]; both sexes, human, plasma, oral, range over dose range 25 to 250 mg NRL-1049, fasting state, read-out: mean AUC0-Tmax", "result": "35.6 to 457", "unit": "ng·h/mL"},
      {"measurement": "AUC(0-inf)", "setting": "[2]; both sexes, human, plasma, oral, range over dose range 25 to 250 mg NRL-1049, fasting state, read-out: mean AUCinf", "result": "546 to 7040", "unit": "ng·h/mL"},
      {"measurement": "Cmax", "setting": "[2]; both sexes, human, plasma, oral, range over dose range 25 to 250 mg NRL-1049, fasting state, read-out: mean Cmax", "result": "54.2 to 1520", "unit": "ng/mL"},
      {"measurement": "half-life", "setting": "[2]; both sexes, human, plasma, oral, range over the dose groups 25 to 250 mg NRL-1049, fasting state, read-out: mean elimination half-life", "result": "12.3 to 17.3", "unit": "h"},
      {"measurement": "Tmax", "setting": "[2]; both sexes, human, plasma, 150 mg, plasma metabolite NRL-2017, median, 150 mg NRL-1049 single oral, Fasted, Cohort 3, N = 6, read-out: Tmax", "result": 1.13, "unit": "h"},
      {"measurement": "Tmax", "setting": "[2]; both sexes, human, plasma, 150 mg, plasma metabolite NRL-2017, median, 150 mg NRL-1049 single oral, Fed, Cohort 3, N = 10, read-out: Tmax", "result": 1.75, "unit": "h"},
      {"measurement": "Tmax", "setting": "[2]; both sexes, human, plasma, range over single oral doses of 25 to 250 mg NRL-1049, fasting state, read-out: median time to maximum observed plasma concentration (Tmax)", "result": "0.88 to 1.63", "unit": "h"},
      {"measurement": "Thalf", "setting": "[2]; plasma metabolite NRL-2017, 150 mg NRL-1049 single oral, Fasted, Cohort 3, N = 6", "result": 12.28, "unit": "h"},
      {"measurement": "Thalf", "setting": "[2]; plasma metabolite NRL-2017, 150 mg NRL-1049 single oral, Fed, Cohort 3, N = 10", "result": 12.37, "unit": "h"},
      {"measurement": "exposure to NRL-2017 relative to NRL-1049", "setting": "[3]", "result": "up to 33 fold"},
      {"measurement": "exposure versus dose", "setting": "[4]; in vivo", "result": "greater than dose-proportional"},
      {"measurement": "half-life", "setting": "[4]; mouse, rat, monkey, plasma, single oral dose of NRL-1049, range over mice, rats, and monkeys, read-out: elimination phase half-life (t½)", "result": "0.58 to 5.7", "unit": "h"},
      {"measurement": "Tmax", "setting": "[4]; mouse, rat, monkey, plasma, single oral dose of NRL-1049, range over mice, rats, and monkeys, read-out: time to maximum plasma concentration (Tmax)", "result": "0.5 to 4", "unit": "h"},
      {"measurement": "ROCK 2 inhibition", "setting": "ROCK 2", "result": "potent ROCK 2 inhibitor"},
      {"measurement": "tissue distribution", "setting": "[5]; brain, aorta, inferior vena cava", "result": "distributed to brain and vascular tissue"},
      {"measurement": "excretion", "setting": "[5]; in vivo", "result": "excreted in urine"}
    ]}
  ]
}
